Laboratory results taken from patent publication US20170354148A1, “SAFENED HERBICIDAL COMPOSITIONS CONTAINING HALAUXIFEN AND METHODS OF USE THEREOF IN BRASSICA SPECIES” (Dow AgroSciences LLC, priority 2016, published 2017).
Where two headings read alike, the source gives them in different places.

How the values were obtained:
[1] = tested on: Aparima Gold swede (Brassica sp., BRSSS); assay: Example 2 field trials (Canterbury, New Zealand), postemergence crop safety, visual phytotoxicity
[2] = tested on: Aparima Gold swede (Brassica sp., BRSSS); assay: Example 1 pot trials, postemergence crop safety, visual phytotoxicity
[3] = tested on: Spring Argentine canola (Brassica napus, BRSNS); assay: Example 3 field trials (Canada), postemergence crop safety, visual phytotoxicity; conditions: alone or mixed
[4] = tested on: kale/Chinese kale (Brassica alboglabra, BRSAG); assay: Example 5 greenhouse trials, postemergence visual injury; conditions: for % Visual Injury Obs / Visual Injury Obs: BRSAG
[5] = tested on: winter oilseed rape (Brassica napus, BRSNW); assay: as above; conditions: for % Visual Injury Obs / Visual Injury Obs: BRSNW
[6] = tested on: turnip or Polish canola (Brassica rapa, BRSRR); assay: as above; conditions: for % Visual Injury Obs / Visual Injury Obs: BRSRR
[7] = tested on: Roundup Ready® canola (Brassica napus, RR-BRSNN); assay: as above; conditions: for % Visual Injury Obs / Visual Injury Obs: RR-BRSNN
[8] = tested on: rutabaga (Brassica napus var. napobrassica, BRSNA); assay: as above; conditions: for % Visual Injury Obs / Visual Injury Obs: BRSNA
[9] = tested on: Nexera™ canola (Brassica napus, BRSNN-NEX); assay: as above; conditions: for % Visual Injury Obs / Visual Injury Obs: BRSNN-NEX
[10] = tested on: Nexera™ canola (Brassica napus, BRSNN-NEX); conditions: in vivo
[11] = tested on: winter oilseed rape (Brassica napus, BRSNW); conditions: in vivo
[12] = tested on: turnip or Polish canola (Brassica rapa, BRSRR); conditions: in vivo
[13] = tested on: rutabaga (Brassica napus var. napobrassica, BRSNA); conditions: in vivo
[14] = tested on: Roundup Ready® canola (Brassica napus, RR-BRSNN); conditions: in vivo
[15] = tested on: kale/Chinese kale (Brassica alboglabra, BRSAG); conditions: in vivo

## O=C(O)c1nc(Cl)ccc1Cl [Clopyralid-TIPA, (2RS,2′RS,2″RS)-tris(2-hydroxypropyl)ammonium 3,6-dichloropyridine-2-carboxylate]
[1]; 22DAA1, 45 g ae/ha
  Mean % Visual Growth Inhibition: 2.0%
[1]; 22DAA1, 90 g ae/ha
  Mean % Visual Growth Inhibition: 8.0%
  Mean % Visual Injury: 0.5%
[1]; 22DAA1, 180 g ae/ha
  Mean % Visual Growth Inhibition: 7.0%
  Mean % Visual Injury: 0.5%
[1]; 28DAA1, 45 g ae/ha
  Mean % Visual Growth Inhibition: 2.5%
  Mean % Visual Injury: 2.8%
[1]; 28DAA1, 90 g ae/ha
  Mean % Visual Growth Inhibition: 5.0%
  Mean % Visual Injury: 4.5%
[1]; 28DAA1, 180 g ae/ha
  Mean % Visual Injury: 3.0%
[1]; 56DAA1, 45 g ae/ha
  Mean % Visual Growth Inhibition: 6.0%
[1]; 56DAA1, 90 g ae/ha
  Mean % Visual Growth Inhibition: 2.0%
[1]; 56DAA1, 180 g ae/ha
  Mean % Visual Growth Inhibition: 4.0%
[2]; 3DAA1, 90 g ae/ha
  Mean % Visual Injury: 2.2%
[2]; 7DAA1, 90 g ae/ha
  Mean % Visual Injury: 0.4%
[2]; 15DAA1, 90 g ae/ha
  Mean % Visual Injury: 0.0%
[2]; 28DAA1, 90 g ae/ha
  Mean % Visual Injury: 0.0%

## O=C(O)c1c(Cl)ccc2cc(Cl)cnc12 [Quinclorac, 3,7-dichloro-8-quinolinecarboxylic acid]
[3]; Table 14, 7DAAA, halauxifen-methyl 5, quinclorac 101 g ae/ha
  Mean % Visual Injury: 0.8%
[3]; Table 14, 15DAAA, halauxifen-methyl 5, quinclorac 101 g ae/ha
  Mean % Visual Injury: 1.0%
[3]; Table 14, 27DAAA, halauxifen-methyl 5, quinclorac 101 g ae/ha
  Mean % Visual Injury: 3.0%
[3]; Table 14, 57DAAA, halauxifen-methyl 5, quinclorac 101 g ae/ha
  Mean % Visual Injury: 1.5%
[3]; Table 15, 7DAAA, halauxifen-methyl 5, clopyralid-olamine 150, quinclorac 101 g ae/ha
  Mean % Visual Injury: 0.8%
[3]; Table 15, 15DAAA, halauxifen-methyl 5, clopyralid-olamine 150, quinclorac 101 g ae/ha
  Mean % Visual Injury: 1.0%
[3]; Table 15, 27DAAA, halauxifen-methyl 5, clopyralid-olamine 150, quinclorac 101 g ae/ha
  Mean % Visual Injury: 3.0%
[3]; Table 15, 57DAAA, halauxifen-methyl 5, clopyralid-olamine 150, quinclorac 101 g ae/ha
  Mean % Visual Injury: 1.5%
[3]; Table 21, 8DAAA, halauxifen-methyl 5, quinclorac 101 g ae/ha
  Mean % Visual Injury: 3.5%
[3]; Table 21, 14DAAA, halauxifen-methyl 5, quinclorac 101 g ae/ha
  Mean % Visual Injury: 1.0%
[3]; Table 21, 40DAAA, halauxifen-methyl 5, quinclorac 101 g ae/ha
  Mean % Visual Injury: 0.5%
[3]; Table 21, 81DAAA, halauxifen-methyl 5, quinclorac 101 g ae/ha
  Mean % Visual Injury: 0.0%
[3]; Table 22, 8DAAA, halauxifen-methyl 5, clopyralid-olamine 150, quinclorac 101 g ae/ha
  Mean % Visual Injury: 3.5%
[3]; Table 22, 14DAAA, halauxifen-methyl 5, clopyralid-olamine 150, quinclorac 101 g ae/ha
  Mean % Visual Injury: 1.0%
[3]; Table 22, 40DAAA, halauxifen-methyl 5, clopyralid-olamine 150, quinclorac 101 g ae/ha
  Mean % Visual Injury: 0.5%
[3]; Table 22, 81DAAA, halauxifen-methyl 5, clopyralid-olamine 150, quinclorac 101 g ae/ha
  Mean % Visual Injury: 0.0%
[3]; Table 27, 7DAAA, halauxifen-methyl 5, quinclorac 101 g ae/ha
  Mean % Visual Injury: 2.3%
[3]; Table 27, 17DAAA, halauxifen-methyl 5, quinclorac 101 g ae/ha
  Mean % Visual Injury: 1.8%
[3]; Table 27, 32DAAA, halauxifen-methyl 5, quinclorac 101 g ae/ha
  Mean % Visual Injury: 5.3%
[3]; Table 27, 49DAAA, halauxifen-methyl 5, quinclorac 101 g ae/ha
  Mean % Visual Injury: 0.5%
[3]; Table 28, 7DAAA, halauxifen-methyl 5, clopyralid-olamine 150, quinclorac 101 g ae/ha
  Mean % Visual Injury: 2.3%
[3]; Table 28, 17DAAA, halauxifen-methyl 5, clopyralid-olamine 150, quinclorac 101 g ae/ha
  Mean % Visual Injury: 1.8%
[3]; Table 28, 32DAAA, halauxifen-methyl 5, clopyralid-olamine 150, quinclorac 101 g ae/ha
  Mean % Visual Injury: 5.3%
[3]; Table 28, 49DAAA, halauxifen-methyl 5, clopyralid-olamine 150, quinclorac 101 g ae/ha
  Mean % Visual Injury: 0.5%
[4]; 50 g ai/ha alone, 20-22 d
  % Visual Injury Obs: 0%
[4]; 100 g ai/ha alone, 20-22 d
  % Visual Injury Obs: 0%
[4]; 200 g ai/ha alone, 20-22 d
  % Visual Injury Obs: 0%
[4]; quinclorac 50 g ai/ha
  % Visual Injury Obs: 0%
  Visual Injury Obs: 0%
[4]; quinclorac 100 g ai/ha
  % Visual Injury Obs: 0%
  Visual Injury Obs: 0%
[4]; quinclorac 200 g ai/ha
  % Visual Injury Obs: 0%
  Visual Injury Obs: 0%
[5]; 50 g ai/ha alone, 20-22 d
  % Visual Injury Obs: 0%
[5]; 100 g ai/ha alone, 20-22 d
  % Visual Injury Obs: 0%
[5]; 200 g ai/ha alone, 20-22 d
  % Visual Injury Obs: 0%
[5]; quinclorac 50 g ai/ha
  % Visual Injury Obs: 0%
  Visual Injury Obs: 0%
[5]; quinclorac 100 g ai/ha
  % Visual Injury Obs: 0%
  Visual Injury Obs: 0%
[5]; quinclorac 200 g ai/ha
  % Visual Injury Obs: 0%
  Visual Injury Obs: 0%
[6]; 50 g ai/ha alone, 20-22 d
  % Visual Injury Obs: 0%
[6]; 100 g ai/ha alone, 20-22 d
  % Visual Injury Obs: 0%
[6]; 200 g ai/ha alone, 20-22 d
  % Visual Injury Obs: 0%
[6]; quinclorac 50 g ai/ha
  % Visual Injury Obs: 0%
  Visual Injury Obs: 0%
[6]; quinclorac 100 g ai/ha
  % Visual Injury Obs: 0%
  Visual Injury Obs: 0%
[6]; quinclorac 200 g ai/ha
  % Visual Injury Obs: 0%
  Visual Injury Obs: 0%
[7]; 50 g ai/ha alone, 20-22 d
  % Visual Injury Obs: 0%
[7]; 100 g ai/ha alone, 20-22 d
  % Visual Injury Obs: 0%
[7]; 200 g ai/ha alone, 20-22 d
  % Visual Injury Obs: 0%
[7]; quinclorac 50 g ai/ha
  % Visual Injury Obs: 0%
  Visual Injury Obs: 0%
[7]; quinclorac 100 g ai/ha
  % Visual Injury Obs: 0%
  Visual Injury Obs: 0%
[7]; quinclorac 200 g ai/ha
  % Visual Injury Obs: 0%
  Visual Injury Obs: 0%
[8]; 50 g ai/ha alone, 20-22 d
  % Visual Injury Obs: 0%
[8]; 100 g ai/ha alone, 20-22 d
  % Visual Injury Obs: 0%
[8]; 200 g ai/ha alone, 20-22 d
  % Visual Injury Obs: 0%
[8]; quinclorac 50 g ai/ha
  % Visual Injury Obs: 0%
  Visual Injury Obs: 0%
[8]; quinclorac 100 g ai/ha
  % Visual Injury Obs: 0%
  Visual Injury Obs: 0%
[8]; quinclorac 200 g ai/ha
  % Visual Injury Obs: 0%
  Visual Injury Obs: 0%
[9]; 50 g ai/ha alone, 20-22 d
  % Visual Injury Obs: 0%
[9]; 100 g ai/ha alone, 20-22 d
  % Visual Injury Obs: 0%
[9]; 200 g ai/ha alone, 20-22 d
  % Visual Injury Obs: 0%
[9]; quinclorac 50 g ai/ha
  % Visual Injury Obs: 0%
  Visual Injury Obs: 0%
[9]; quinclorac 100 g ai/ha
  % Visual Injury Obs: 0%
  Visual Injury Obs: 0%
[9]; quinclorac 200 g ai/ha
  % Visual Injury Obs: 0%
  Visual Injury Obs: 0%

## CCOC(=O)C1=NN(c2ccc(Cl)cc2Cl)C(C)(C(=O)OCC)C1 (racemic) [Mefenpyr-diethyl, diethyl (RS)-1-(2,4-dichlorophenyl)-5-methyl-2-pyrazoline-3,5-dicarboxylate]
[4]; safener alone 5 g ai/ha
  Percent (%) Visual Injury BRSAG Obs: 0%
[4]; safener alone 10 g ai/ha
  Percent (%) Visual Injury BRSAG Obs: 0%
[4]; safener alone 20 g ai/ha
  Percent (%) Visual Injury BRSAG Obs: 0%
[4]; safener alone 40 g ai/ha
  Percent (%) Visual Injury BRSAG Obs: 0%
[5]; safener alone 5 g ai/ha
  Percent (%) Visual Injury BRSNW Obs: 0%
[5]; safener alone 10 g ai/ha
  Percent (%) Visual Injury BRSNW Obs: 0%
[5]; safener alone 20 g ai/ha
  Percent (%) Visual Injury BRSNW Obs: 0%
[5]; safener alone 40 g ai/ha
  Percent (%) Visual Injury BRSNW Obs: 0%
[6]; safener alone 5 g ai/ha
  Percent (%) Visual Injury BRSRR Obs: 0%
[6]; safener alone 10 g ai/ha
  Percent (%) Visual Injury BRSRR Obs: 0%
[6]; safener alone 20 g ai/ha
  Percent (%) Visual Injury BRSRR Obs: 0%
[6]; safener alone 40 g ai/ha
  Percent (%) Visual Injury BRSRR Obs: 0%
[7]; safener alone 5 g ai/ha
  Percent (%) Visual Injury RR-BRSNN Obs: 0%
[7]; safener alone 10 g ai/ha
  Percent (%) Visual Injury RR-BRSNN Obs: 0%
[7]; safener alone 20 g ai/ha
  Percent (%) Visual Injury RR-BRSNN Obs: 0%
[7]; safener alone 40 g ai/ha
  Percent (%) Visual Injury RR-BRSNN Obs: 0%
[8]; safener alone 5 g ai/ha
  Percent (%) Visual Injury BRSNA Obs: 0%
[8]; safener alone 10 g ai/ha
  Percent (%) Visual Injury BRSNA Obs: 0%
[8]; safener alone 20 g ai/ha
  Percent (%) Visual Injury BRSNA Obs: 0%
[8]; safener alone 40 g ai/ha
  Percent (%) Visual Injury BRSNA Obs: 0%
[9]; safener alone 5 g ai/ha
  Percent (%) Visual Injury BRSNN-NEX Obs: 0%
[9]; safener alone 10 g ai/ha
  Percent (%) Visual Injury BRSNN-NEX Obs: 0%
[9]; safener alone 20 g ai/ha
  Percent (%) Visual Injury BRSNN-NEX Obs: 0%
[9]; safener alone 40 g ai/ha
  Percent (%) Visual Injury BRSNN-NEX Obs: 0%

## CCCCCC(C)OC(=O)COc1ccc(Cl)c2cccnc12 (centres unmarked) [Cloquintocet-mexyl, 1-methylhexyl (5-chloroquinolin-8-yloxy)acetate]
[10]
  Percent (%) Visual Injury BRSNN-NEX Obs: 0%
[11]
  Percent (%) Visual Injury BRSNW Obs: 0%
[12]
  Percent (%) Visual Injury BRSRR Obs: 0%
[13]
  Percent (%) Visual Injury BRSNA Obs: 0%
[14]
  Percent (%) Visual Injury RR-BRSNN Obs: 0%
[15]
  Percent (%) Visual Injury BRSAG Obs: 0%
